Series [1] in a line: plasma THC and CBD concentrations after separate and co-administration.
Series [2] can be described thus: human skin permeation of cannabidiol with permeation enhancers. Conditions: enhancer 6% v/v. The format is in vitro ADME. The source says: The aim of the experiment was to evaluate the effect of permeation enhancers on human skin permeation of cannabidiol (CBD). The following permeation enhancers were used in the study: • LAUROGLYCOL 90-(Propylene glycol monolaurate 90%)-LG-90 • TRANSCUTOL HP (Purified diethylene glycol monoethyl ether)-TC-HP • LABRAFIL® M 1944 CS (Oleoyl Macrogolglycerides)-LF • LABRASOL® (Caprylocaproyl Macrogolglycerides)-LB • SUPER REFINED® NOVOL NF (Oleyl Alcohol)-OA
A high-pressure liquid chromatography (HPLC) assay was used for the analysis of CBD in the samples. The HPLC system consisted of a Waters 717 plus Autosampler, Waters 1525 Binary HPLC Pump and Waters 2487 Dual λ Absorbance Detector with Waters Breeze software. A Brownlee C-18 reversed-phase Spheri-5 μm column (220×4.6 mm) with a C-18 reversed phase 7 μm guard column (15×3.2 mm) was used with the UV detector set at a wavelength of 215 nm. The mobile phase was comprised of acetonitrile: 25 mM phosphate buffer with 0.1% triethylamine pH 3.0 (80:20). The flow rate of the mobile phase was […] and 100 μL of the sample was injected onto the column.
Human skin harvested during abdominoplasty was used for the diffusion studies. Skin sections were obtained by using a Padgett Instruments® dermatome set to 250 microns and stored at −20° C. […] Trans-epidermal water loss was measured (Evaporimeter EP1™, ServoMed, Sweden) after securing the skin in the cells. Pieces of skin with readings below 10 g/m^2/h were used for the diffusion studies. […] An excess quantity of CBD was added to the donor vehicle (propylene glycol:Hanks' buffer (80:20)) solution with and without permeation enhancers at 6% v/v, sonicated for 10 min, and then applied onto the skin. Excess quantity of the drug was used in the donor compartment throughout the diffusion experiment in order to maintain maximum and constant chemical potential of the drug in the donor vehicle. […]
Drug disposition in the skin samples was measured at the completion of the 48 h experiment. […] Samples were analyzed by HPLC to determine CBD content in […] (pmol) of drug per gram of wet tissue weight. […]

The conditions of series [3]: full-thickness human skin, Touitou et al. 1988; cited from earlier work.
Series [4] can be described thus: in vitro permeation of Δ^9-tetrahydrocannabinol across human skin with various receiver solutions.
The nature of series [5]: skin permeation study of WIN 55,212-2 in flow-through diffusion cells. It is filed as in vitro ADME, human. The protocol: The skin permeation study was carried out using skin excised during abdominal reduction surgery. The skin sample was harvested from the abdomen using a Padgett dermatome set to 250 μm; the skin sample was frozen at −20° C. for one week. The frozen skin sample was thawed and used at the 250 μm split-thickness for the diffusion study. Three PermeGear In-Line Flow Cells were used for the skin permeation study. The receiver fluid was 6% BRIJ® 98 (Polyoxyethylene 20 Oleyl Ether), in order to increase the partitioning of this extremely lipophilic drug into the receiver. The receiver fluid was pumped through the diffusion cells at a rate of one milliliter per hour. The receiver samples were refrigerated until HPLC analysis. The temperature of the diffusion cells was maintained at 32° C. with a circulating water bath. The diffusion experiment was initiated by charging the donor compartment with 0.25 mL of WIN 55,212-2 Mesylate in propylene glycol (50 mg/mL).
Samples were analyzed using a HPLC system which consisted of a Waters 717 Autosampler, 501 Pumps, and a 484 Tunable UV Absorbance Detector with Millennium Chromatography Software. A reversed phase Beckman 5 μm particle 4.6 mm×25 cm C-18 column was used with the UV detector set at a wavelength of 215 nm. The mobile phase consisted of 0.05 M monobasic potassium phosphate:acetonitrile (300 mL:700 mL) at a flow rate of 2 mL/min.
Skin permeation data were plotted as the cumulative amount of drug collected in the receiver compartment as a function of time. The lag times and steady-state fluxes were calculated using the terminal, linear portions of these curves. The slopes (Js) through these curves were determined using linear regression analysis. In all cases, the coefficients of determination for the lines were >0.99.
Lag times were determined by extrapolating the steady-state curves to the X-axis. The permeability coefficient was calculated from Fick's law of diffusion: […]

Several values for one entry are separate records, joined by “and”; a condition that tells them apart may be missing. Identical values can stand only once. A value given as a limit tells only on which side of the number the result lay.

Turning to `C=C(C)C1CCC(C)=CC1c1c(O)cc(CCCCC)cc1O` (centres unmarked) [CBD, 2-[3-methyl-6-(1-methylethenyl)-2-cyclohexen-1-yl]-5-pentyl-1,3-benzenediol], the “cannabidiol plasma concentration, coadministered with THC vs alone” value in series [1] (FIG. 12) was “higher both initially and over time when coadministered”. For the same compound, the “Cumulative amount permeated at 48 h” value in series [2] (48 h) is 193.21 ± 22.77 nmol and 338.11 ± 73.09 nmol. The “Lag Time” value in series [2] (donor propylene glycol:Hanks' buffer (80:20)) is 14.19 ± 1.59 h and 9.43 ± 2.47 h. The Flux in series [2] (steady state, donor propylene glycol:Hanks' buffer (80:20) with excess CBD, receiver with 40% PEG 400, 32° C.) was 9.16 ± 1.41 nmol/cm^2/h.
`CCCCCc1cc(O)c2c(c1)OC(C)(C)[C@@H]1CC=C(C)C[C@@H]21` [Δ^8-THC, Δ^8-tetrahydrocannabinol]: in series [3], the flux rate is 3.5 μg/cm^2/hr and the permeability coefficient was 0.036 ×10⁻⁶ cm/s.
Consider `CCCCCc1cc(O)c2c(c1)OC(C)(C)[C@@H]1CCC(C)=C[C@@H]21` [Δ^9-tetrahydrocannabinol], for which the “THC plasma concentration, coadministered with cannabidiol vs alone” value in series [1] (FIG. 11) is “higher both initially and over time when coadministered”. Also, in series [4] (6% BRIJ 98 receiver solution), the “permeability difference of tape stripped skin relative to intact skin” value is “six fold”. The “permeability enhancement with 6% BSA relative to 4% BSA” value in series [4] (four subjects, except subject 3) is listed as 20-50%. In addition, the mean lag time in series [4] (intact skin) is 18.0 ± 3.4 h; in series [4] (stripped skin) it was 7.8 ± 3.9 h. The “permeability in presence of BRIJ 98 solution relative to BSA solution” value in series [4] (receiver BRIJ 98 (6%) vs BSA (4%), five subjects, except subject 4) is given as 2-5 fold. Further, the “permeability with 6% BRIJ 98 vs 0.5% BRIJ 98 receiver solution” value in series [4] (three subjects, differences not statistically significant) is on record as “similar”. For the same compound, the “permeability of tape stripped skin relative to intact skin” value in series [4] (various receiver solutions) is given as 2-3 times.
In turn, `Cc1c(C(=O)c2cccc3ccccc23)c2cccc3c2n1[C@H](CN1CCOCC1)CO3` [WIN 55,212-2, (R)-(+)-[2,3-dihydro-5-methyl-3-(4-morpholinylmethyl)-pyrrolo[1,2,3-de]-1,4-benzoxazin-6-yl]-1-naphthalenyl-methanone] came in with a diffusion lag time in series [5] (250 μm split-thickness skin, donor 50 mg/mL in propylene glycol, receiver 6% BRIJ 98, 32° C., 48 h) of 24 h. The “drug depletion from the donor compartment” value in series [5] (48 h, donor not saturated) is listed as under 1%. In series [5] (steady state, donor 50 mg/mL in propylene glycol, receiver 6% BRIJ 98, n=3), the mean flux is on record as 2.6 μg/cm^2/h.

These data come from patent US8435556B2, “Transdermal delivery of cannabidiol” (Alltranz, LLC, priority 2005, dated 2013).
